Assay results from patent EP4806899A1, “FUSED RING DERIVATIVE, PREPARATION METHOD THEREFOR AND USE THEREOF IN MEDICINE” (Shanghai Qilu Pharmaceutical Research and Development …, priority 2023, dated 2025).

Legend:
human CYP11B2 enzyme = molecular target: T1, human CYP11B2 enzyme (Homo sapiens, UniProt P19099); assay: Enzyme inhibition activity assay in G402 cells stably expressing human CYP11B2 (aldosterone production from 11-DOC, LC/MS); type: cell-based; conditions: 1 µM 11-DOC, 16 hours, aldosterone detected
T1 construct: the ORF of human CYP11B1 or CYP11B2 were transfected into G402 cells; expressed in transfected cells
T1 sequence (P19099 25-503): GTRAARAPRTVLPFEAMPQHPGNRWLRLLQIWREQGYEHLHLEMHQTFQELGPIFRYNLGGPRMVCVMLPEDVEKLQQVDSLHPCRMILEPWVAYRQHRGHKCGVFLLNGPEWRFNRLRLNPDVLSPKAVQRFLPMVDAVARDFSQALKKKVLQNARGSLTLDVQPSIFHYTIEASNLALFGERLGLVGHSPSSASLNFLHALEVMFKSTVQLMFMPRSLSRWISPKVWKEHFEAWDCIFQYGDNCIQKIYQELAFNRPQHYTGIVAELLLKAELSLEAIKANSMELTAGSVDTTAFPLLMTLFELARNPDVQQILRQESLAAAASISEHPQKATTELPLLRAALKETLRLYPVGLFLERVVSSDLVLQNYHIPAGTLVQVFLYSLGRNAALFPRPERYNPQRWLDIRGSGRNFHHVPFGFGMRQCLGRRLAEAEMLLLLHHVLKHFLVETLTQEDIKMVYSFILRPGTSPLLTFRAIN
Excerpt: (§1) G402 cells (ATCC, CRL 1440) are epithelioid cells isolated from the kidney of a patient with renal failure and are a type of leiomyoblastoma. For the screening of highly specific CYP11B2 inhibitors, we specifically used G402 cell lines stably expressing human CYP11B2 enzyme or human CYP11B1 enzyme for experimental development.
(§2) Construction of Stably Transfected Cell Lines: Expression plasmids containing suitable promoters, suitable drug resistance markers, and the ORF of human CYP11B1 or CYP11B2 were transfected into G402 cells using standard techniques. The cells were then screened using the specific puromycin resistance marker. Monoclonal cells stably expressing human CYP11B2 were selected for expansion, and 11-deoxycorticosterone (11-DOC) was used as the specific substrate to evaluate enzyme activity based on aldosterone production. Monoclonal cells stably expressing human CYP11B1 were selected for expansion, and 11-deoxycortisol (11-DC) was used as the specific substrate, with cortisol production as the detection target for specific enzyme activity evaluation. The G402 cell lines stably expressing CYP11B1/CYP11B2 were cultured at 37 °C, 5% CO2, 95% air in complete medium (McCoy's 5A + 10% FBS + 1% PS + 0.5 µg/mL puromycin).
(§3) Enzyme Inhibition Activity Assay: CYP11B1 G402/CYP11B2 G402 cells were spread out flatly in cell culture plates. After 24 hours, the medium was changed to an enzyme testing system (DMEM/F12 + 2.5% charcoal-stripped FCS). Small molecule inhibitors at various concentrations were added. After 1 hour, appropriate concentrations of specific substrates (1 µM 11-DOC / 1 µM 11-DC) were added and co-incubated with the cells for 16 hours. Cells were then collected, and specific products were detected using LC/MS methods with an AB SCIEX TRIPLE QUAD 5500+, CTO-40S instrument (CYP11B2 enzyme detecting aldosterone; CYP11B1 enzyme detecting cortisol).
(§4) The IC50 values of the compounds were determined based on the G402 testing system. The dose-dependent inhibition of enzyme activity was calculated by plotting the added inhibitor concentration (x-axis) against the percentage of product inhibitory activity relative to the control group (y-axis) based on product formation at various compound concentrations. The following data were then fitted using the least squares method with XLfit 5.5.0 for a four-parameter logistic curve fit: [formula] • Y-axis: Percentage of product inhibitory activity relative to the control group; • logIC50: IC50 was determined using XLFit.
(§5) The maximum enzyme activity corresponds to the amount of control product steroid/aldosterone in the absence of inhibitor, set as 100%. The minimum enzyme activity corresponds to the amount of reference control product steroid/aldosterone in the presence of inhibitor. Table 3 Inhibitory Activity of the Compounds of the Present Disclosure on CYP11B2 and CYP11B1

human CYP11B1 enzyme = molecular target: T2, human CYP11B1 enzyme (Homo sapiens, UniProt P15538); assay: Enzyme inhibition activity assay in G402 cells stably expressing human CYP11B1 (cortisol production from 11-DC, LC/MS); type: cell-based; conditions: 1 µM 11-DC, 16 hours, cortisol detected
T2 construct: the ORF of human CYP11B1 or CYP11B2 were transfected into G402 cells; expressed in transfected cells
T2 sequence (P15538 25-503): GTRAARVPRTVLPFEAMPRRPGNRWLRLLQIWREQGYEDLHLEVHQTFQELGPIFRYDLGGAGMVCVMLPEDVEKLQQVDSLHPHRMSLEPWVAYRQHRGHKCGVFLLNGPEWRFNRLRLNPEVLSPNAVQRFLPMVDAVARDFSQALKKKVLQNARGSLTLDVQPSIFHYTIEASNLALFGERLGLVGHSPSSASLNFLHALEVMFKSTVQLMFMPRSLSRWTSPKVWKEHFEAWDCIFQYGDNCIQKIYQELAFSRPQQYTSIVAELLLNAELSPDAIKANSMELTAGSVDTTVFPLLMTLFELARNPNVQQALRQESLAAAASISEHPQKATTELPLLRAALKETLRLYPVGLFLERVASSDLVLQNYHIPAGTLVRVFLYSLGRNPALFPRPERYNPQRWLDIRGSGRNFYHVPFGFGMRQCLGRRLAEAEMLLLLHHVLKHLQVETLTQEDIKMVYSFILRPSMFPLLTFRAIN
Excerpt: as §1, §2, §3, §4, §5

| Compound | IC50 (human CYP11B2 enzyme) [nM] | IC50 (human CYP11B1 enzyme) [nM] |
| --- | --- | --- |
| CCC(=O)N[C@@H]1COCc2c(-c3ccc4c(c3)CCC(=O)N4C)cncc21 [Compound A01] | 41.7 | – |
| CN(C)C(=O)N[C@@H]1CCCc2c(-c3ccc4c(c3)CCC(=O)N4C)cncc21 [Compound D11] | 7.4 | 1060 |
| CCC(=O)N[C@@H]1CCCc2c(-c3ccc4c(ccc(=O)n4C)c3F)cncc21 [Compound C45] | 33 | – |
| CN(C)C(=O)N[C@@H]1CCOc2c(-c3ccc4c(c3)CCC(=O)N4C)cncc21 [Compound A12] | 12.6 | 3120 |
| COCC(=O)N[C@@H]1CCCc2c(-c3ccc4c(c3)CCC(=O)N4C)cncc21 [Compound D06] | 8.2 | 288 |
| COC(=O)N[C@@H]1CCOc2c(-c3ccc4c(c3)CCC(=O)N4C)cncc21 [Compound A14] | 2.3 | 202 |
| [2H]C([2H])([2H])NC(=O)N[C@@H]1CCCc2c(-c3ccc4c(ccc(=O)n4C)c3)cncc21 [Compound A15] | 9.9 | – |
| [2H]C([2H])([2H])OC(=O)N[C@@H]1CCCc2c(-c3ccc4c(ccc(=O)n4C)c3)cncc21 [Compound A27] | 5 | 213 |
| CN1C(=O)CCc2cc(-c3cncc4c3CCC[C@H]4N3CCC4(CC4)C3=O)ccc21 [Compound D14] | 13 | – |
| CCC(=O)N[C@@H]1CCCc2c(-c3cnc4c(c3)cc(C#N)n4C)cncc21 [Compound C37] | 11.4 | 1720 |
| CN(C)C(=O)N[C@@H]1CCCc2c(-c3ccc4c(c3)COC(=O)N4C)cncc21 [Compound A33] | 9.7 | 312 |
| COC(=O)N[C@@H]1CCCc2c(-c3cc(Cl)c4c(ccc(=O)n4C)c3)cncc21 [Compound A51] | 4.4 | 625 |
| CCC(=O)N[C@@H]1CCCc2c(-c3ccc4c(c3)CCCC(=O)N4C)cncc21 [Compound C15] | 24.5 | 2550 |
| CCC(=O)NC1CCCc2c(-c3cnc4c(c3)CCCN4C(N)=O)cncc21 (stereo not shown) [Compound C02] | 16.9 | – |
| COC(=O)N[C@@H]1CCOc2c(-c3ccc4c(ccc(=O)n4C)c3)cncc21 [Compound A42] | 12.9 | 1700 |
| [2H]C([2H])([2H])OC(=O)N[C@@H]1CCCc2c(-c3ccc4c(c3)OCC(=O)N4C)cncc21 [Compound A29] | 8.8 | 479 |
| COC(=O)N[C@@H]1CCOc2c(-c3ccc4c(c3)cc(C#N)n4C)cncc21 [Compound A35] | 1.4 | 184 |
| CN1C(=O)CCc2cc(-c3cncc4c3CCC[C@H]4N3CCCC3=O)ccc21 [Compound D03] | 8.1 | – |
| CNC(=O)N[C@@H]1CCCc2c(-c3ccc4c(c3)COC(=O)N4C)cncc21 [Compound A34] | 7.5 | 294 |
| CN(C)C(=O)N[C@@H]1CCCc2c(-c3ccc4c(c3)OCC(=O)N4C)cncc21 [Compound A26] | 19 | – |
| CCC(=O)N[C@@H]1CCOc2c(-c3cc(F)c4c(ccc(=O)n4C)c3)cncc21 [Compound A20] | 29.1 | – |
| [2H]C([2H])([2H])NC(=O)N[C@@H]1CCCc2c(-c3ccc4c(c3)CCC(=O)N4C)cncc21 [Compound D08] | 11 | 803 |
| COC(=O)N[C@@H]1CCOc2c(-c3ccc4c(c3)OCC(=O)N4C)cncc21 [Compound A44] | 21.9 | – |
| [2H]C([2H])([2H])NC(=O)N[C@@H]1CCOc2c(-c3ccc4c(c3)OCC(=O)N4C)cncc21 [Compound A32] | 34.7 | – |

| Compound | IC50 (human CYP11B2 enzyme) [nM] | IC50 (human CYP11B1 enzyme) [nM] |
| --- | --- | --- |
| [2H]C([2H])([2H])NC(=O)N[C@@H]1CCCc2c(-c3ccc4c(c3)OCC(=O)N4C)cncc21 [Compound A25] | 14.9 | 2150 |
| COC(=O)N[C@@H]1CCCc2c(-c3ccc4c(c3)CCC(=O)N4C)cncc21 [Compound D05] | 3.4 | – |
| CCC(=O)N[C@@H]1CCCc2c(-c3ccc4c(c3)OCC(=O)N4C)cncc21 [Compound C09] | 31 | 3850 |
| CCC(=O)N[C@@H]1CCOc2c(-c3cc(F)c4c(c3)cc(C#N)n4C)cncc21 [Compound A55] | 4.5 | – |
| COC(=O)N[C@@H]1CCOc2c(-c3ccc4c(c3)COC(=O)N4C)cncc21 [Compound A43] | 6.6 | 572 |
| [2H]C([2H])([2H])OC(=O)N[C@@H]1CCOc2c(-c3ccc4c(c3)COC(=O)N4C)cncc21 [Compound A40] | 6.1 | 487 |
| CN1C(=O)CCc2cc(-c3cncc4c3CCC[C@H]4N3CCOC3=O)ccc21 [Compound D12] | 7.3 | 362 |
| C[C@@H](F)C(=O)N[C@@H]1CCCc2c(-c3ccc4c(c3)CCC(=O)N4C)cncc21 [Compound D07-P1] | 33.9 | – |
| CCC(=O)N[C@@H]1CCCc2c(-c3ccc4c(ccc(=O)n4C(F)F)c3)cncc21 [Compound C33] | 32.7 | – |
| [2H]C([2H])([2H])NC(=O)N[C@@H]1CCOc2c(-c3ccc4c(c3)cc(C#N)n4C)cncc21 [Compound A38] | 2.3 | 283 |
| CCC(=O)N[C@@H]1CCCc2c(-c3ccc4c(ccc(=O)n4C)c3)cncc21 [Compound C04] | 19.2 | 2500 |
| CCC(=O)N[C@@H]1CCOc2c(-c3ccc4c(c3)OCC(=O)N4C)cncc21 [Compound A19] | 35.5 | – |
| [2H]C([2H])([2H])OC(=O)N[C@@H]1CCOc2c(-c3ccc4c(ccc(=O)n4C)c3)cncc21 [Compound A39] | 10.1 | 1450 |
| [2H]C([2H])([2H])OC(=O)N[C@@H]1CCCc2c(-c3cc(F)c4c(ccc(=O)n4C)c3)cncc21 [Compound A48] | 5.9 | 712 |
| CCC(=O)N[C@@H]1CCCc2c(-c3ccc4c(cnn4C)c3)cncc21 [Compound C21] | 26.5 | – |
| CCC(=O)N[C@@H]1CCCc2c(-c3ccc4c(c3)CC(=O)N4C)cncc21 [Compound C24] | 24.2 | – |
| CNC(=O)N[C@@H]1CCCc2c(-c3ccc4c(c3)CCC(=O)N4C)cncc21 [Compound D01] | 5.9 | – |
| [2H]C([2H])([2H])NC(=O)N[C@@H]1CCOc2c(-c3ccc4c(ccc(=O)n4C)c3)cncc21 [Compound A17] | 23.1 | – |
| CCNC(=O)N[C@@H]1CCCc2c(-c3ccc4c(c3)CCC(=O)N4C)cncc21 [Compound D09] | 28.2 | – |
| CN1C(=O)CCc2cc(-c3cncc4c3CCC[C@H]4NC(=O)N3CCC3)ccc21 [Compound D17] | 33.3 | – |
| CCC(=O)N[C@@H]1CCCc2c(-c3ccc4c(c3)cc(F)c(=O)n4C)cncc21 [Compound C16] | 43.3 | – |
| CCC(=O)N[C@@H]1CCOc2c(-c3cc(Cl)c4c(c3)cc(C#N)n4C)cncc21 [Compound A56] | 11.6 | – |
| [2H]C([2H])([2H])OC(=O)N[C@@H]1CCOc2c(-c3ccc4c(c3)OCC(=O)N4C)cncc21 [Compound A41] | 28.9 | – |
